Data set [1] concerns the target T1, c-Abl kinase (His-tagged kinase domain of c-Abl) (Homo sapiens, UniProt P00519).
T1 construct: The His-tagged kinase domain of c-Abl is cloned and expressed in the baculovirus/Sf9 system; His tag; made in house; host or cells: Sf9 insect cells (baculovirus)
T1 sequence (P00519 242-493 limits assumed): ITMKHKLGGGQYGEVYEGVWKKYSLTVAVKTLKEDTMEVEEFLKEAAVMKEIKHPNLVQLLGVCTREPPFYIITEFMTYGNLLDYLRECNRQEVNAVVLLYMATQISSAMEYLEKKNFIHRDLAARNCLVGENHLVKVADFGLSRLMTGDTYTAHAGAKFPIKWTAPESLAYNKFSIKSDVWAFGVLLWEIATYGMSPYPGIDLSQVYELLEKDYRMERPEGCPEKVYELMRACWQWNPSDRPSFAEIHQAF
Put plainly: c-Abl protein-tyrosine kinase in vitro enzyme filter binding assay. In kind it is biochemical. To be noted: % inhibition at 10 μM. As for the experimental part: An in vitro enzyme assay is performed in 96-well plates as a filter binding assay as described by Geissler et al. in Cancer Res. 1992; 52:4492-4498, with the following modifications. The His-tagged kinase domain of c-Abl is cloned and expressed in the baculovirus/Sf9 system as described by Bhat et al. in J. Biol. Chem. 1997; 272:16170-16175. A protein of 37 kD (c-Abl kinase) is purified by a two-step procedure over a Cobalt metal chelate column followed by an anion exchange column with a yield of 1-2 mg/L of Sf9 cells (Bhat et al., reference cited). The purity of the c-Abl kinase is >90% as judged by SDS-PAGE after Coomassie blue staining. The assay contains (total volume of 30 μL): c-Abl kinase (50 ng), 20 mM Tris·HCl, pH 7.5, 10 mM MgCl2, 10 μM Na3VO4, 1 mM DTT and 0.06 μCi/assay [γ^33 P]-ATP (5 μM ATP) using 30 μg/mL poly-Ala,Glu,Lys,Tyr-6:2:5:1 (Poly-AEKY, Sigma P1152) in the presence of 1% DMSO. Reactions are terminated by adding 10 μL of 250 mM EDTA and 30 μL of the reaction mixture is transferred onto Immobilon-PVDF membrane (Millipore, Bedford, Mass., USA) previously soaked for 5 min with methanol, rinsed with water, then soaked for 5 min with 0.5% H3PO4 and mounted on vacuum manifold with disconnected vacuum source. After spotting all samples, vacuum is connected and each well rinsed with 200 μL 0.5% H3PO4. Membranes are removed and washed on a shaker with 0.5% H3PO4 (4 times) and once with ethanol. Membranes are counted after drying at ambient temperature, mounting in Packard TopCount 96-well frame, and addition of 10 μL/well of Microscint™ (Packard).
Enzymatic (c-Abl, KDR, Flt3) data are given on Table 17 (% inhibition at 10 μM). (Measurements are made as described above in the general description).

Data set [2] has as its target T2, human VEGF-R2 receptor (KDR) (Homo sapiens, UniProt P35968).
T2 construct: expressed in transfected cells
Put plainly: Inhibition of VEGF-induced VEGF-R2 (KDR) autophosphorylation in transfected CHO cells, sandwich ELISA. Format: cell-based. To be noted: % inhibition at 10 μM. Here is the method:
The inhibition of VEGF-induced receptor autophosphorylation can be confirmed with a further in vitro experiments in cells such as transfected CHO cells, which permanently express human VEGF-R2 receptor (KDR), are seeded in complete culture medium (with 10% fetal calf serum=FCS) in 6-well cell-culture plates and incubated at 37° C. under 5% CO2 until they show about 80% confluency. The compounds to be tested are then diluted in culture medium (without FCS, with 0.1% bovine serum albumin) and added to the cells. (Controls comprise medium without test compounds). After two hours of incubation at 37° C., recombinant VEGF is added; the final VEGF concentration is 20 ng/ml. After a further five minutes incubation at 37° C., the cells are washed twice with ice-cold PBS (phosphate-buffered saline) and immediately lysed in 100 μl lysis buffer per well. The lysates are then centrifuged to remove the cell nuclei, and the protein concentrations of the supernatants are determined using a commercial protein assay (BIORAD). The lysates can then either be immediately used or, if necessary, stored at −20° C.
The plates are then washed and the remaining free protein-binding sites are saturated with 3% TopBlock® (Juro, Cat. # TB232010) in phosphate buffered saline with Tween 20® (polyoxyethylen(20)sorbitane monolaurate, ICI/Uniquema) (PBST). The cell lysates (20 μg protein per well) are then incubated in these plates overnight at 4° C. together with an antiphosphotyrosine antibody coupled with alkaline phosphatase (PY20:AP from Zymed). […] The luminescence is measured in a Packard Top Count Microplate Scintillation Counter. The difference between the signal of the positive control (stimulated with VEGF) and that of the negative control (not stimulated with VEGF) corresponds to VEGF-induced VEGF-R2 phosphorylation (=100%). The activity of the tested substances is calculated as percent inhibition of VEGF-induced VEGF-R2 phosphorylation, wherein the concentration of substance that induces half the maximum inhibition is defined as the IC50 (inhibitory dose for 50% inhibition). […]
In general terms: ELISA stands for enzyme-linked immunosorbent assay.

T2 sequence (P35968 20-1356): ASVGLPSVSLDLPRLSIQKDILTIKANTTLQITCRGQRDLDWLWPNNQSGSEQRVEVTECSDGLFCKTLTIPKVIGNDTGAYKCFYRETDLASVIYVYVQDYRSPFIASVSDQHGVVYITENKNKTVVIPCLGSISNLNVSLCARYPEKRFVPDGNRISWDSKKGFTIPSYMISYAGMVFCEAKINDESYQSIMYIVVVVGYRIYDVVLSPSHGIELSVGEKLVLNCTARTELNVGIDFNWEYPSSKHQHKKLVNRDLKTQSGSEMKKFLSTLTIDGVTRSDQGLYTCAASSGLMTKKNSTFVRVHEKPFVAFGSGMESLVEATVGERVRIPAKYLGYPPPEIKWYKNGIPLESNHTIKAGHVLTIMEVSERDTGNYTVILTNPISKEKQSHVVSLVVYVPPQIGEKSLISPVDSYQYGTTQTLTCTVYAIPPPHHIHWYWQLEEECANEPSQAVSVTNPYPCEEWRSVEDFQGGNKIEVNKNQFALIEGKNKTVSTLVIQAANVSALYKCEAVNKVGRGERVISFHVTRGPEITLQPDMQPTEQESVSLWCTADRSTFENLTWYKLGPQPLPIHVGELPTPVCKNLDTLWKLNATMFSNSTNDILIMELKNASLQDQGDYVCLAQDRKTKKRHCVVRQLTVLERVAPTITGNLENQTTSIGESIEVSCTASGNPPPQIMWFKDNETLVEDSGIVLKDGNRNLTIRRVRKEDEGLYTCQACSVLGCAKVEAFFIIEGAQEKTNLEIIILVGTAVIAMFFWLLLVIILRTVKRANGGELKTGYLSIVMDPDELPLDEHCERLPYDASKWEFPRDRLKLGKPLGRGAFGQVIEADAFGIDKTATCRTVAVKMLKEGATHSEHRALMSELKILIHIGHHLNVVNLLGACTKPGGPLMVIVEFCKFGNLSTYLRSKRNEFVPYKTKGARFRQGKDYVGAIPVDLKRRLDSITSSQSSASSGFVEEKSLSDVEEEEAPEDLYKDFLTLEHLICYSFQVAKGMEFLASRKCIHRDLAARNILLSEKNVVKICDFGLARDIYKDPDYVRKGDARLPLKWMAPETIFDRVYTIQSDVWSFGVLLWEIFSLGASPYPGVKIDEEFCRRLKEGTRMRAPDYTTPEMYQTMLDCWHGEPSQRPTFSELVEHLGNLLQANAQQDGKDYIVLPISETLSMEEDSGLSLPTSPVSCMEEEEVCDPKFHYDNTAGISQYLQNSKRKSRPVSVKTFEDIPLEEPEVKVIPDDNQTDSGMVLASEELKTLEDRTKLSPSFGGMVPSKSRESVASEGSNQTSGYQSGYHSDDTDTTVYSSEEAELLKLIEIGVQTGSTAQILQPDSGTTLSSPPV

In the case of `Cc1ccc(NC(=O)Nc2ccc(Oc3cc(Cl)ncn3)cc2)cc1C(F)(F)F` [Example 76, 1-[4-(6-Chloro-pyrimidin-4-yloxy)-phenyl]-3-(4-methyl-3-trifluoromethyl-phenyl)-urea], the melting point (commonly the temperature, or range, at which the solid turns liquid) was in the range of 183 to 184.5 °C.

Turning to `Cc1ccc(NC(=O)Nc2ccc(Oc3ccncc3)cc2)cc1C(F)(F)F` [Example 43, 1-(4-Methyl-3-trifluoromethyl-phenyl)-3-[4-(pyridin-4-yloxy)-phenyl]-urea], the melting point is 149 °C (dec.).

In the case of `CCN1CCN(Cc2cc(NC(=O)Nc3ccc(Oc4cc(Cl)ncn4)cc3)cc(C(F)(F)F)c2)CC1` [Example 134, N-(4-(6-Chloropyrimidin-4-yl-oxy)-phenyl)-N′-{5-trifluoromethyl-3-[(4-ethylpiperazin-1-ylmethyl)]-phenyl}-urea], the melting point was 168 to 169 °C.

The compound `CN(C)Cc1cc(NC(=O)Nc2ccc(Oc3cc(Cl)ncn3)cc2)cc(C(F)(F)F)c1` [Example 135, N-(4-(6-Chloropyrimidin-4-yl-oxy)-phenyl)-N′-[5-trifluoromethyl-3-(dimethylamino-methyl)-phenyl]-urea] gave a melting point of 154 °C.

With `O=C(Nc1ccc(Oc2cc(Nc3ccc(O)cc3)ncn2)cc1)Nc1cccc(C(F)(F)F)c1` [Example 22, N-(4-(4-(4-hydroxyphenylamino)-pyrimidin-6-yl)-oxyphenyl)-N′-(3-trifluoromethylphenyl)-urea], the melting point was 142 °C (dec.).

Regarding `Cc1ccc(NC(=O)Nc2ccc(Oc3cc(Cl)ncn3)cc2)cc1` [Example 97, 1-[4-(6-Chloro-pyrimidin-4-yloxy)-phenyl]-3-p-tolyl-urea], the melting point fell in the range of 217 to 219 °C.

Compound `CCc1cc(Oc2ccc(NC(=O)Nc3ccc(C)cc3)cc2)ncn1` [Example 99, 1-[4-(6-Ethyl-pyrimidin-4-yloxy)phenyl]-3-p-tolyl-urea] had a melting point of 160 to 162 °C.

For `O=C(Nc1cccc(C(F)(F)F)c1)N1CCc2cc(Oc3cc(Cl)ncn3)ccc21` [Example 163, 5-(6-Chloro-pyrimidin-4-yloxy)-2,3-dihydro-indole-1-carboxylic acid (3-trifluoromethyl-phenyl)-amide], the melting point was determined as 181 °C.

In turn, `COc1cc(NC(=O)Nc2ccc(Oc3ccncc3)cc2)cc(C(F)(F)F)c1` [Example 37, 1-(3-Methoxy-5-trifluoromethyl-phenyl)-3-[4-(pyridin-4-yloxy)-phenyl]-urea] displayed a melting point of 162.5 to 164.5 °C.

Turning to `CCCc1ccc(NC(=O)Nc2ccc(Oc3ccncc3)cc2)cc1` [Example 3], the “c-Abl (% at 10 μM)” value in data set [1] stood at 58%. Besides, the “KDR trans (% at 10 μM)” value in data set [2] worked out at 25%.

`CNc1cc(Oc2ccc(NC(=O)Nc3ccc(C)c(C(F)(F)F)c3)cc2)ncn1` [Example 67]: the melting point was 202 to 203 °C (dec.).

As to `CCN(CC)c1ccc(NC(=O)Nc2ccc(Oc3ccncc3)cc2)cc1C(F)(F)F` [Example 39], the melting point is 60 °C (dec.).

Take `O=C(Nc1ccc(Oc2ccncc2)cc1)Nc1cccc(C(F)(F)F)c1` [Example 2]: the “c-Abl (% at 10 μM)” value in data set [1] is given as 84%. Further, the “KDR trans (% at 10 μM)” value in data set [2] was 99%.

`CCc1ccc(NC(=O)Nc2ccc(Oc3ccncc3)cc2)cc1` [Example 1, N-(4-pyridin-4-yl-oxy-phenyl)-N′-(4-ethyl-phenyl)-urea] registered a melting point of 166.5 to 168 °C. Also, in data set [1], the “c-Abl (% at 10 μM)” value is 62%. For the same compound, the “KDR trans (% at 10 μM)” value in data set [2] is 100%.

The values above are taken from patent publication US7652022B2, “Diaryl urea derivatives useful for the treatment of protein kinase dependent diseases” (Novartis AG, priority 2002, dated 2010).
